Assay results as given in the supplement of paper PMC11208160.

Experiment: recombinant UMI read abundance after kanamycin selection (control-corrected) (log10(CPM+1)); higher = more efficient recombination; extreme values may be limits of the assay; sequences stand for … in AGTGCAGAGAAAATCGGCCAGTTTTCTCTGCCTGCAGTCCGCATGCCGTGGGACCCCTTGGGTTCTAACCTGTTGCCTAGATTTATGCAGCGGACTGCCTTTCTCCCAAAGTGATAAACCGG…AGGTTGGTTTCACT; site = the 11-nt donor
Outline: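 Values, expressed as log10(CPM+1), derive from recombinant UMI counts converted to CPM, averaged across replicates and scaled by control-derived factors. Plating was with IPTG (0.07 mM) plus kanamycin or unselected, two replicates each. The screen pooled donor and donor-binding-loop pairs for the IS621 bridge recombinase in Escherichia coli.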
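Further: IS621 bridge recombinase in Escherichia coli cells against a fixed T5 target plasmid.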

Sequence | recombinant UMI read abundance (log10)
TGCCTTTCATGGACCGGTTTTCCCGGTAATCCGTATTTGAC (site AGCCTTTCTGT) | 0
TGCCTTTCATGGACCGGTTTTCCCGGTAATCCGTATTTGAC (site CGCCTTTCTGT) | 0
TGCCTTTCATGGACCGGTTTTCCCGGTAATCCGTATTTGAC (site GGCCTTTCTGT) | 0
TGCCTTTCATGGACCGGTTTTCCCGGTAATCCGTATTTGAC (site TGCCTTTCTGT) | 0
TGCGGAACATGGACCGGTTTTCCCGGTAATCCGTATTTGTT (site TGCGGAACTAA) | 0.718
TGCGGCCCATGGACCGGTTTTCCCGGTAATCCGTATTTGCG (site TGCGGCCCTCG) | 0.0374
TGCGGTACATGGACCGGTTTTCCCGGTAATCCGTATTTGAG (site TGCGGTACTCT) | 0.757
TGCGGTCCATGGACCGGTTTTCCCGGTAATCCGTATTTGAA (site TGCGGTCCTTT) | 0
TGCGGTCCATGGACCGGTTTTCCCGGTAATCCGTATTTGAG (site TGCGGTCCTCT) | 0.0157
TGCTAAGCATGGACCGGTTTTCCCGGTAATCCGTATTTGGT (site TGCTAAGCTAC) | 0.906
TGCTAAGCATGGACCGGTTTTCCCGGTAATCCGTATTTGGT (site TGCTACGCTAC) | 0
TGCTAAGCATGGACCGGTTTTCCCGGTAATCCGTATTTGGT (site TGCTAGGCTAC) | 0.0128
TGCTAAGCATGGACCGGTTTTCCCGGTAATCCGTATTTGGT (site TGCTATGCTAC) | 0.0152
TGCTAGACATGGACCGGTTTTCCCGGTAATCCGTATTTGGT (site TGCTAGACTAC) | 0.462
TGCTAGACATGGACCGGTTTTCCCGGTAATCCGTATTTGGT (site TGCTAGCCTAC) | 0.00952
TGCTAGACATGGACCGGTTTTCCCGGTAATCCGTATTTGGT (site TGCTAGGCTAC) | 0.0111
TGCTAGACATGGACCGGTTTTCCCGGTAATCCGTATTTGGT (site TGCTAGTCTAC) | 0.357
TGCTAGGCATGGACCGGTTTTCCCGGTAATCCGTATTTGGT (site AGCTAGGCTAC) | 0.0183
TGCTAGGCATGGACCGGTTTTCCCGGTAATCCGTATTTGGT (site CGCTAGGCTAC) | 0.019
TGCTAGGCATGGACCGGTTTTCCCGGTAATCCGTATTTGGT (site GGCTAGGCTAC) | 0.0224
TGCTAGGCATGGACCGGTTTTCCCGGTAATCCGTATTTGGT (site TACTAGGCTAC) | 0.00634
TGCTAGGCATGGACCGGTTTTCCCGGTAATCCGTATTTGGT (site TCCTAGGCTAC) | 0.0105
TGCTAGGCATGGACCGGTTTTCCCGGTAATCCGTATTTGGT (site TGATAGGCTAC) | 0.00571

Sequence | recombinant UMI read abundance (log10)
TGCTAGGCATGGACCGGTTTTCCCGGTAATCCGTATTTGGT (site TGCAAGGCTAC) | 0
TGCTAGGCATGGACCGGTTTTCCCGGTAATCCGTATTTGGT (site TGCCAGGCTAC) | 0.00869
TGCTAGGCATGGACCGGTTTTCCCGGTAATCCGTATTTGGT (site TGCGAGGCTAC) | 0.00468
TGCTAGGCATGGACCGGTTTTCCCGGTAATCCGTATTTGGT (site TGCTAAGCTAC) | 0.0704
TGCTAGGCATGGACCGGTTTTCCCGGTAATCCGTATTTGGT (site TGCTACGCTAC) | 0.0185
TGCTAGGCATGGACCGGTTTTCCCGGTAATCCGTATTTGGT (site TGCTAGACTAC) | 0.0977
TGCTAGGCATGGACCGGTTTTCCCGGTAATCCGTATTTGGT (site TGCTAGCCTAC) | 0.0225
TGCTAGGCATGGACCGGTTTTCCCGGTAATCCGTATTTGGT (site TGCTAGGCTAA) | 0.0155
TGCTAGGCATGGACCGGTTTTCCCGGTAATCCGTATTTGGT (site TGCTAGGCTAC) | 0.108
TGCTAGGCATGGACCGGTTTTCCCGGTAATCCGTATTTGGT (site TGCTAGGCTAG) | 0.0108
TGCTAGGCATGGACCGGTTTTCCCGGTAATCCGTATTTGGT (site TGCTAGGCTAT) | 0.0134
TGCTAGGCATGGACCGGTTTTCCCGGTAATCCGTATTTGGT (site TGCTAGGCTCC) | 0.0152
TGCTAGGCATGGACCGGTTTTCCCGGTAATCCGTATTTGGT (site TGCTAGGCTGC) | 0.0103
TGCTAGGCATGGACCGGTTTTCCCGGTAATCCGTATTTGGT (site TGCTAGGCTTC) | 0.0129
TGCTAGGCATGGACCGGTTTTCCCGGTAATCCGTATTTGGT (site TGCTAGTCTAC) | 0.00544
TGCTAGGCATGGACCGGTTTTCCCGGTAATCCGTATTTGGT (site TGCTATGCTAC) | 0.00951
TGCTAGGCATGGACCGGTTTTCCCGGTAATCCGTATTTGGT (site TGCTCGGCTAC) | 0.0253
TGCTAGGCATGGACCGGTTTTCCCGGTAATCCGTATTTGGT (site TGCTGGGCTAC) | 0.0136
TGCTAGGCATGGACCGGTTTTCCCGGTAATCCGTATTTGGT (site TGCTTGGCTAC) | 0.0132
TGCTAGGCATGGACCGGTTTTCCCGGTAATCCGTATTTGGT (site TGGTAGGCTAC) | 0.00942
TGCTAGGCATGGACCGGTTTTCCCGGTAATCCGTATTTGGT (site TGTTAGGCTAC) | 0.026
TGCTAGGCATGGACCGGTTTTCCCGGTAATCCGTATTTGGT (site TTCTAGGCTAC) | 0.0121
TGCTAGTCATGGACCGGTTTTCCCGGTAATCCGTATTTGGT (site TGCTAGACTAC) | 0.00505

Sequence | recombinant UMI read abundance (log10)
TGCTAGTCATGGACCGGTTTTCCCGGTAATCCGTATTTGGT (site TGCTAGCCTAC) | 0.0102
TGCTAGTCATGGACCGGTTTTCCCGGTAATCCGTATTTGGT (site TGCTAGGCTAC) | 0.00963
TGCTAGTCATGGACCGGTTTTCCCGGTAATCCGTATTTGGT (site TGCTAGTCTAC) | 1.07
TGCTCAGCATGGACCGGTTTTCCCGGTAATCCGTATTTGGG (site AGCTCAGCTCC) | 0.0267
TGCTCAGCATGGACCGGTTTTCCCGGTAATCCGTATTTGGG (site CGCTCAGCTCC) | 0.0151
TGCTCAGCATGGACCGGTTTTCCCGGTAATCCGTATTTGGG (site GGCTCAGCTCC) | 0.0391
TGCTCAGCATGGACCGGTTTTCCCGGTAATCCGTATTTGGG (site TGCTCAGCTCC) | 0.00921
TGCTCGGCATGGACCGGTTTTCCCGGTAATCCGTATTTGAT (site TGCTCGGCTAT) | 0.54
TGCTCGGCATGGACCGGTTTTCCCGGTAATCCGTATTTGGT (site TGCTAGGCTAC) | 0.00732
TGCTCGGCATGGACCGGTTTTCCCGGTAATCCGTATTTGGT (site TGCTCGGCTAC) | 0.0236
TGCTCGGCATGGACCGGTTTTCCCGGTAATCCGTATTTGGT (site TGCTGGGCTAC) | 0.00677
TGCTCGGCATGGACCGGTTTTCCCGGTAATCCGTATTTGGT (site TGCTTGGCTAC) | 0.00594
TGCTGAGCATGGACCGGTTTTCCCGGTAATCCGTATTTGAT (site TGCTGAGCTAT) | 1.36
TGCTTCGCATGGACCGGTTTTCCCGGTAATCCGTATTTGTC (site TGCTTCGCTGA) | 0.542
TGGAATACATGGACCGGTTTTCCCGGTAATCCGTATTTGCA (site TAGAATACTTG) | 0.91
TGGAATACATGGACCGGTTTTCCCGGTAATCCGTATTTGCA (site TCGAATACTTG) | 0.55
TGGAATACATGGACCGGTTTTCCCGGTAATCCGTATTTGCA (site TGGAATACTTG) | 1.86
TGGAATACATGGACCGGTTTTCCCGGTAATCCGTATTTGCA (site TTGAATACTTG) | 0.00597
TGGAATCCATGGACCGGTTTTCCCGGTAATCCGTATTTGTG (site CGGAATCCTAA) | 0.00353
TGGAATCCATGGACCGGTTTTCCCGGTAATCCGTATTTGTG (site TGGAATCCTCA) | 0.604
TGGAATGCATGGACCGGTTTTCCCGGTAATCCGTATTTGTT (site CGGAATCCTAA) | 0.00325
TGGAATGCATGGACCGGTTTTCCCGGTAATCCGTATTTGTT (site TGGAATGCTAA) | 1.71
